Legend:
Type in all cases: in vivo
Lolium perenne (LOLPE) = assay: Glasshouse herbicide test, pre- and post-emergence, Lolium perenne; conditions: 250 g/h, evaluated after 13 days; for LOLPE POST, percentage damage caused to the plant (five point scale): post-emergence; for LOLPE PRE, percentage damage caused to the plant (five point scale): pre-emergence
Method in brief: (§1)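 Glasshouse, 24/16 °C, 14 h photoperiod, 65% humidity. Sprayed at 250 g/h pre- (1 d) or post-emergence (8 d); evaluated 13 d after spraying, 5-point damage scale.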

[1] = test system: Echinochloa crus-galli (ECHCG); assay: Glasshouse herbicide test, pre- and post-emergence, Echinochloa crus-galli; conditions: 250 g/h, evaluated after 13 days; for ECHCG POST, percentage damage caused to the plant (five point scale): post-emergence; for ECHCG PRE, percentage damage caused to the plant (five point scale): pre-emergence
Method in brief: as §1

Setaria faberi (SETFA) = assay: Glasshouse herbicide test, pre- and post-emergence, Setaria faberi; conditions: 250 g/h, evaluated after 13 days; for SETFA POST, percentage damage caused to the plant (five point scale): post-emergence; for SETFA PRE, percentage damage caused to the plant (five point scale): pre-emergence
Method in brief: as §1

[2] = test system: wheat plants (Triticum aestivum (TRZAW)); assay: Crop phytotoxicity, wheat plants treated post-emergence
Experimental: (§2) Seeds of a variety of test species are sown in standard soil in pots (Lolium perenne (LOLPE), Setaria faberi (SETFA), Alopecurus myosuroides (ALOMY), Echinochloa crus-galli (ECHCG), Avena fatua (AVEFA)). After cultivation for one day (pre-emergence) or after 8 days cultivation (post-emergence) under controlled conditions in a glasshouse (at 24/16° C., day/night; 14 hours light; 65% humidity), the plants are sprayed with an aqueous spray solution derived from the formulation of the technical active ingredient in acetone/water (50:50) solution containing 0.5% Tween 20 (polyoxyethelyene sorbitan monolaurate, CAS RN 9005-64-5). Compounds are applied at […]. The test plants are then grown in a glasshouse under controlled conditions in a glasshouse (at 24/16° C., day/night; 14 hours light; 65% humidity) and watered twice daily. After 13 days for pre and post-emergence, the test is evaluated for the percentage damage caused to the plant. The biological activities are shown in the following table on a five point scale (5=80-100%; 4=60-79%; 3=40-59%; 2=20-39%; 1=0-19%).
Using procedures outlines above, wheat plants (Triticum aestivum (TRZAW) are treated post-emergence with compound 1.2 of the present invention or compound A-18 from WO 2013/079708. The results outlined in Table B2 below show % phytotoxicity observed and that compound 1.2 of the present invention is less damaging to wheat compared to compound A-18 disclosed in WO2013/079708.

Avena fatua (AVEFA) = assay: Glasshouse herbicide test, pre- and post-emergence, Avena fatua; conditions: 250 g/h, evaluated after 13 days; for AVEFA POST, percentage damage caused to the plant (five point scale): post-emergence; for AVEFA PRE, percentage damage caused to the plant (five point scale): pre-emergence
Method in brief: as §1

[3] = test system: soybean plants (Glycine max (GLYMX)); assay: Crop phytotoxicity, soybean plants treated post-emergence
Experimental: [The procedure below names another organism; the source says it served here with some conditions changed.] as §2

[4] = test system: Alopecurus myosuroides (ALOMY); assay: Glasshouse herbicide test, pre- and post-emergence, Alopecurus myosuroides; conditions: 250 g/h, evaluated after 13 days; for ALOMY POST, percentage damage caused to the plant (five point scale): post-emergence; for ALOMY PRE, percentage damage caused to the plant (five point scale): pre-emergence
Method in brief: as §1

| Structure (SMILES) | LOLPE POST, percentage damage caused to the plant (five point scale) (Lolium perenne (LOLPE)) | LOLPE PRE, percentage damage caused to the plant (five point scale) (Lolium perenne (LOLPE)) | ECHCG POST, percentage damage caused to the plant (five point scale) [1] | ECHCG PRE, percentage damage caused to the plant (five point scale) [1] | SETFA POST, percentage damage caused to the plant (five point scale) (Setaria faberi (SETFA)) | SETFA PRE, percentage damage caused to the plant (five point scale) (Setaria faberi (SETFA)) | TRZAW % Phyto ([2]; rate 4 g/ha) [%] | TRZAW % Phyto ([2]; rate 16 g/ha) [%] | TRZAW % Phyto ([2]; rate 63 g/ha) [%] | AVEFA POST, percentage damage caused to the plant (five point scale) (Avena fatua (AVEFA)) | AVEFA PRE, percentage damage caused to the plant (five point scale) (Avena fatua (AVEFA)) | GLYMX % Phyto ([3]; rate 15 g/ha) [%] | GLYMX % Phyto ([3]; rate 30 g/ha) [%] | GLYMX % Phyto ([3]; rate 60 g/ha) [%] | ALOMY POST, percentage damage caused to the plant (five point scale) [4] | ALOMY PRE, percentage damage caused to the plant (five point scale) [4] |
| --- | --- | --- | --- | --- | --- | --- | --- | --- | --- | --- | --- | --- | --- | --- | --- | --- |
| CC#Cc1ccc(C2C(=O)[C@@H]3[C@H](C2=O)[C@H]2CC[C@@H]3O2)c(OC)c1 (some centres unmarked) [Compound 1.2, 4-[2-methoxy-4-(prop-1-yn-1-yl)phenyl]-10-oxatricyclo[5.2.1.0^2,6]decane-3,5-dione] | 5 (5=80-100%) | 5 (5=80-100%) | 5 (5=80-100%) | 5 (5=80-100%) | 5 (5=80-100%) | 5 (5=80-100%) | 20 | 70 | 60 | 5 (5=80-100%) | 5 (5=80-100%) |  |  |  |  |  |
| CC#Cc1cc(C)c(C2C(=O)[C@@H]3[C@H](C2=O)[C@H]2CC[C@@H]3O2)c(C)c1 (some centres unmarked) [Compound A-18, reference compound] |  |  |  |  |  |  | 60 | 100 | 100 |  |  | 40 | 60 | 80 |  |  |
| CC#Cc1ccc(C2C(=O)[C@@H]3[C@@H]4O[C@@H](C[C@H]4COC)[C@@H]3C2=O)c(OC)c1 (mixture of isomers) [Compound 1.15] | 5 (5=80-100%) | 5 (5=80-100%) | 5 (5=80-100%) | 5 (5=80-100%) | 5 (5=80-100%) | 5 (5=80-100%) |  |  |  | 5 (5=80-100%) | 5 (5=80-100%) |  |  |  | 5 (5=80-100%) | 5 (5=80-100%) |
| CC#Cc1ccc(C2C(=O)[C@@H]3[C@@H]4O[C@@H](C[C@@H]4C4OCCO4)[C@@H]3C2=O)c(OC)c1 (mixture of isomers) [Compound 1.18] | 5 (5=80-100%) | 5 (5=80-100%) | 5 (5=80-100%) | 5 (5=80-100%) | 5 (5=80-100%) | 5 (5=80-100%) |  |  |  | 5 (5=80-100%) | 4 (4=60-79%) |  |  |  | 5 (5=80-100%) | 4 (4=60-79%) |
| CC#Cc1ccc(C2C(=O)[C@@H]3[C@H](C2=O)[C@@H]2O[C@H]3C[C@]2(C)OC)c(OC)c1 (mixture of isomers) [Compound 1.33] | 5 (5=80-100%) | 5 (5=80-100%) | 5 (5=80-100%) | 5 (5=80-100%) | 5 (5=80-100%) | 5 (5=80-100%) |  |  |  | 5 (5=80-100%) | 5 (5=80-100%) |  |  |  | 5 (5=80-100%) | 5 (5=80-100%) |

From patent US20200113181A1, “HERBICIDAL COMPOUNDS” (SYNGENTA PARTICIPATIONS AG, priority 2016, published 2020)
